18 compounds from ChEMBL document CHEMBL3991601, “The target landscape of clinical kinase drugs” (Science, 2017) can be followed below.

The structures appear in SMILES notation. Activity calls are given as the source filed them.

The target in experiment [1] is T1, Eukaryotic translation initiation factor 5B (Homo sapiens, UniProt O60841).
T1 sequence (O60841 whole entry): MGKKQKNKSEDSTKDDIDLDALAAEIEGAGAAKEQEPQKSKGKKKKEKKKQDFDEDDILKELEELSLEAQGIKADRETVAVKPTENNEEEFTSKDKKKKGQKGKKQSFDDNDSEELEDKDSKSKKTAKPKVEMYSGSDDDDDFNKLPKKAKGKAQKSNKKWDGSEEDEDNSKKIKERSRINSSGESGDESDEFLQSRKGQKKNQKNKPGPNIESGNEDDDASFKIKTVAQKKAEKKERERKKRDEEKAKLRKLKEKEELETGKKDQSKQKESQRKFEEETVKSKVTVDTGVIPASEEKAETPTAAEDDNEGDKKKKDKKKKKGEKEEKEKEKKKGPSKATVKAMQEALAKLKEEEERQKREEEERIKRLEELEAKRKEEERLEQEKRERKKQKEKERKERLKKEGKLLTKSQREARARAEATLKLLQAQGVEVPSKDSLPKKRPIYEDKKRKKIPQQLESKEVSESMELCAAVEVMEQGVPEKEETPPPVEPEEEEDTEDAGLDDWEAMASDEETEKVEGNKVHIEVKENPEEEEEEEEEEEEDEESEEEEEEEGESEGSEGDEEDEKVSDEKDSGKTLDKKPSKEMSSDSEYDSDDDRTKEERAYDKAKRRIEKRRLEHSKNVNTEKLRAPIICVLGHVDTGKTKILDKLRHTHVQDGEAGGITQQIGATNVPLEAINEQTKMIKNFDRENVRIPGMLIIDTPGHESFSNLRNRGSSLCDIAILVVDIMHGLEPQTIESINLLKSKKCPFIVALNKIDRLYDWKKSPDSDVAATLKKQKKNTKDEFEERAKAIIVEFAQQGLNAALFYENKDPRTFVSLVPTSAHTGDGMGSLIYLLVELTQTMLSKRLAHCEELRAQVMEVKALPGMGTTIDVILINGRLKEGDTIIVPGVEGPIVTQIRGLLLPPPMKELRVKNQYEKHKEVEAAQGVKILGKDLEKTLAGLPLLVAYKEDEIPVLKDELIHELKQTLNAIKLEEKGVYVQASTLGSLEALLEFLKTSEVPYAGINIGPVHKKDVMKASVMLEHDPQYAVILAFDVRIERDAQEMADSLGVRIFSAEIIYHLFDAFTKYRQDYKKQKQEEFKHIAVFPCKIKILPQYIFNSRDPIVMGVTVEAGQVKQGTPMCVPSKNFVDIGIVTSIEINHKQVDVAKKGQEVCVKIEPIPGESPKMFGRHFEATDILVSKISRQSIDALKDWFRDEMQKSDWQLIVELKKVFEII

In experiment [2] the target is T2, Isoleucine--tRNA ligase, mitochondrial (Homo sapiens, UniProt Q9NSE4).
T2 sequence (Q9NSE4 whole entry): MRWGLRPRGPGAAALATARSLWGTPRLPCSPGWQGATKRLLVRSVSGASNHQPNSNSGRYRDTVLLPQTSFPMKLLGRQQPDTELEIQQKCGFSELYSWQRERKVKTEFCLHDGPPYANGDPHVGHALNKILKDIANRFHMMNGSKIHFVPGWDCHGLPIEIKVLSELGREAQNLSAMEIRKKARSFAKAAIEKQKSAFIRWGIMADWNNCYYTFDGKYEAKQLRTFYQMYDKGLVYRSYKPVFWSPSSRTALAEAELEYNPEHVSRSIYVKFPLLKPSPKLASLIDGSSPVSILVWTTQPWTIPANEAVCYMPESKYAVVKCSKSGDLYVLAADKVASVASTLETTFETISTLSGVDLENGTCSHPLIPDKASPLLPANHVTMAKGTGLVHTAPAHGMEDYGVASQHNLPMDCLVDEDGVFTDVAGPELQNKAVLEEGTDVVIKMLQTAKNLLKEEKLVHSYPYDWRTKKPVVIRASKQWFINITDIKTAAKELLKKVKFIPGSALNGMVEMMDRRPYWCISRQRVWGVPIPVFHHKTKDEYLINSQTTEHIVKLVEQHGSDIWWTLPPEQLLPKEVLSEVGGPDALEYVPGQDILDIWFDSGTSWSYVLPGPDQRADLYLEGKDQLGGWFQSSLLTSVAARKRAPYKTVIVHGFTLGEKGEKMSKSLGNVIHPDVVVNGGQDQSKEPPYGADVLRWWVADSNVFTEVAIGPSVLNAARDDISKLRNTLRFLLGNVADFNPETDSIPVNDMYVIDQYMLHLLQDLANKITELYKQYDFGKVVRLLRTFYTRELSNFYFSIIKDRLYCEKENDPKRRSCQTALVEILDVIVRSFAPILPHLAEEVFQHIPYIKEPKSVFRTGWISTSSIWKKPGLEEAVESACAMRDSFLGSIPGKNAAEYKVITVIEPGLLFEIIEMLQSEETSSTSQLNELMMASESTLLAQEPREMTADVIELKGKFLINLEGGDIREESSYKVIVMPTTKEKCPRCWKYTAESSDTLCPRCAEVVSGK

The target in experiment [3] is Myosin-10 (Homo sapiens, UniProt P35580).
Experiment [4] concerns the target Obg-like ATPase 1 (Homo sapiens, UniProt Q9NTK5).
Experiment [5] concerns the target Serine/threonine-protein kinase 24 (Homo sapiens, UniProt Q9Y6E0).
Experiment [6] addresses Epidermal growth factor receptor (Homo sapiens, UniProt P00533).
Experiment [7] addresses Mitogen-activated protein kinase 14 (Homo sapiens, UniProt Q16539).
The target in experiment [8] is Hepatocyte growth factor receptor (Homo sapiens, UniProt P08581).
The target in experiment [9] is Misshapen-like kinase 1 (Homo sapiens, UniProt Q8N4C8).
Note: in the data inactive means no Kd found up to 30 µM.

Chain of Epidermal growth factor receptor (P00533 whole entry): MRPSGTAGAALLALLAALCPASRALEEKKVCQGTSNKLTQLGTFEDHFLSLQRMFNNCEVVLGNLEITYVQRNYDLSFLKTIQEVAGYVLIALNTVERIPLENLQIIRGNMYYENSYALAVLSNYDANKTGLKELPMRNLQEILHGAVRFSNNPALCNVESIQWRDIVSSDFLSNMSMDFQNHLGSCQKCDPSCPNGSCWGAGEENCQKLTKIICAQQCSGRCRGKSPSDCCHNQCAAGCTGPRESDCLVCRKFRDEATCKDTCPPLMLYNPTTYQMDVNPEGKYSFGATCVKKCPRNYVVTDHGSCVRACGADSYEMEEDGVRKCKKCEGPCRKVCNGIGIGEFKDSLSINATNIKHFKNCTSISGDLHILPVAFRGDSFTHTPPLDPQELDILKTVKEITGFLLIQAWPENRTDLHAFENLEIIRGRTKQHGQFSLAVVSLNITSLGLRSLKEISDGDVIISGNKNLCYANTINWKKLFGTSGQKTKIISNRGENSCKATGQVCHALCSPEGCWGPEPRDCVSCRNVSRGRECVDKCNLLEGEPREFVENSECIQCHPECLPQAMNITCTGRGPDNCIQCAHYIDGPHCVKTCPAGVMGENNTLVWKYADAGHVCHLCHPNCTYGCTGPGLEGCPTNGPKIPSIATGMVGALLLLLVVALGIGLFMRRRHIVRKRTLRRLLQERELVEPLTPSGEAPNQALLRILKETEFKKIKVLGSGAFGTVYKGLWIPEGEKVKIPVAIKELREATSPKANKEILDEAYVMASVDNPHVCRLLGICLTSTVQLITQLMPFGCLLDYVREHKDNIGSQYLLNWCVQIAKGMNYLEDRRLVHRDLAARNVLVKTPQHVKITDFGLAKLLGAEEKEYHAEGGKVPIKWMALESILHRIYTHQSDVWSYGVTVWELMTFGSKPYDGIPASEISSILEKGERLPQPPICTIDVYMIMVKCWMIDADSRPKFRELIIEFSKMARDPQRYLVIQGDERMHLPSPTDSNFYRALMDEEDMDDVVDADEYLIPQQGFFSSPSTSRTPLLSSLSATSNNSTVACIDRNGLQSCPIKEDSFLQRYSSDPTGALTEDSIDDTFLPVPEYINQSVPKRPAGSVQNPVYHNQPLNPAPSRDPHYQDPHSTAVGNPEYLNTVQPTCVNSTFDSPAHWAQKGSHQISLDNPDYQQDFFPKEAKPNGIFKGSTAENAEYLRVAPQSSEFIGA
Chain of Obg-like ATPase 1 (Q9NTK5 whole entry, looked up): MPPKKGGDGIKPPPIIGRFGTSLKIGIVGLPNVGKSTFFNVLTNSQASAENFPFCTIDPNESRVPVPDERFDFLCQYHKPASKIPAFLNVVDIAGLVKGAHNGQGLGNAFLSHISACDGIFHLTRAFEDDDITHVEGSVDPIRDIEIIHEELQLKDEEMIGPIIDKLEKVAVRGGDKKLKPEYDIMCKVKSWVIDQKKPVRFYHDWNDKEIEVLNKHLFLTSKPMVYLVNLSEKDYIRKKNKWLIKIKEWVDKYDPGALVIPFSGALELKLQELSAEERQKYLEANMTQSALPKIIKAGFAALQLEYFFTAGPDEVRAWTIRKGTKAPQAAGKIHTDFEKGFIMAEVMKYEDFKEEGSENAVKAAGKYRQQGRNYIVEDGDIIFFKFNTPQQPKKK
Chain of Myosin-10 (P35580 whole entry): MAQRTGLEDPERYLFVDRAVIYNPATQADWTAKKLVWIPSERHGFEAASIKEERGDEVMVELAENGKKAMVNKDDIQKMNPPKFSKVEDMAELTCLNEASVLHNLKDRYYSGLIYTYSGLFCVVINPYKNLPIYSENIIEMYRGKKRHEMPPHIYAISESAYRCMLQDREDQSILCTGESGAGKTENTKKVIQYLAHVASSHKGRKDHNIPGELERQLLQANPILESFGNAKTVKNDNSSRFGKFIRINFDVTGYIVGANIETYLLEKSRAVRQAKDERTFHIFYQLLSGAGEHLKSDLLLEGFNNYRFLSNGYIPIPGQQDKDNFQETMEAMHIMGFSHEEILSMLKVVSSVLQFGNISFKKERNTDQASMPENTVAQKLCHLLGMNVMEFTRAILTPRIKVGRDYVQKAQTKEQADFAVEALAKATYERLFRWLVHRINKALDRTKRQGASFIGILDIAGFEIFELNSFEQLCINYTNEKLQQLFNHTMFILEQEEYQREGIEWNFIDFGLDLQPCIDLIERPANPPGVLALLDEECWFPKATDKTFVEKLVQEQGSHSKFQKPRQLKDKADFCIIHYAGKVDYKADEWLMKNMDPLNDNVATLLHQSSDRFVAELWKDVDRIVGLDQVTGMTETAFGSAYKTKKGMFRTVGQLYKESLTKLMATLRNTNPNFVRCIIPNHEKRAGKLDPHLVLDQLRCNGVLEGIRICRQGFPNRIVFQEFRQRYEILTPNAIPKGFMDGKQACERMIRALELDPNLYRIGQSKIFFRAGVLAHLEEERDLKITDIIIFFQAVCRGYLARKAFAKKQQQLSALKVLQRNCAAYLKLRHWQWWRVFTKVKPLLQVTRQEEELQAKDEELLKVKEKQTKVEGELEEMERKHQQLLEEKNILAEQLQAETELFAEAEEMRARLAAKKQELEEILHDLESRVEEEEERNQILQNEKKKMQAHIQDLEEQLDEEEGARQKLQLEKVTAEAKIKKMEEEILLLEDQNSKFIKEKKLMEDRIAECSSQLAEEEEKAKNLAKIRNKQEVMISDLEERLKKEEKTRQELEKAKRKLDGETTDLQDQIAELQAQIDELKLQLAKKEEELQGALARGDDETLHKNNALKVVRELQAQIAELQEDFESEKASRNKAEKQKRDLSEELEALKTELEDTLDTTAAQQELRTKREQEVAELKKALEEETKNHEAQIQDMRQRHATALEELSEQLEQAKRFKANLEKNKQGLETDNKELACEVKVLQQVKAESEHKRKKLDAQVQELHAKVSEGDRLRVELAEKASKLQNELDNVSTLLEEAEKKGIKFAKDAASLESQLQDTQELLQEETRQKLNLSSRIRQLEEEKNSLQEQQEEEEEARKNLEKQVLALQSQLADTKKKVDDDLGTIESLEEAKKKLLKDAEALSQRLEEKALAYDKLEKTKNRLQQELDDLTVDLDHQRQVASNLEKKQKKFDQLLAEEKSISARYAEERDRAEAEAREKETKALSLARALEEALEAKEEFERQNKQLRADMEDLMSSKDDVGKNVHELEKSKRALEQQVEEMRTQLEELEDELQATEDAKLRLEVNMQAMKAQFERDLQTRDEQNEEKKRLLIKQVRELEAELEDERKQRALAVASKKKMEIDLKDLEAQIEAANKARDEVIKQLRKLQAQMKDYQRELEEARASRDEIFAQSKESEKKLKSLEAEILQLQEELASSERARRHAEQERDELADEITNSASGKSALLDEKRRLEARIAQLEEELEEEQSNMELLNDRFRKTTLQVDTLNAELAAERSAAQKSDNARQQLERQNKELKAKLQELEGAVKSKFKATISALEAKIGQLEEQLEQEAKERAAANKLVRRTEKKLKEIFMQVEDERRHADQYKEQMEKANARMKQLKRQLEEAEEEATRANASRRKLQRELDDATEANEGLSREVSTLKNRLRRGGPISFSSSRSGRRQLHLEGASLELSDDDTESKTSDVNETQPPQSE
Chain of Serine/threonine-protein kinase 24 (Q9Y6E0 whole entry): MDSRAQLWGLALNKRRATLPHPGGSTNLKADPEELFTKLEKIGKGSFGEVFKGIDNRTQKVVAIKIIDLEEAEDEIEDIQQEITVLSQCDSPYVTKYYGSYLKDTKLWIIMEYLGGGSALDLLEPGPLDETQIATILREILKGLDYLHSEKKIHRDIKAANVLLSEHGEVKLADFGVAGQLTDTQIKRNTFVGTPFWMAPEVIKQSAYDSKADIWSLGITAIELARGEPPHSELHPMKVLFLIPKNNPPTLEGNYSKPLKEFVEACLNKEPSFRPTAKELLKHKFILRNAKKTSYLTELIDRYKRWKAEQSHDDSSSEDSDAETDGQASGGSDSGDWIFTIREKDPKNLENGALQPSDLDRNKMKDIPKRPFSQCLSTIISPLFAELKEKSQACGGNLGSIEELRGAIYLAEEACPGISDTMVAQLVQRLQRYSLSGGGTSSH
Chain of Mitogen-activated protein kinase 14 (Q16539 whole entry): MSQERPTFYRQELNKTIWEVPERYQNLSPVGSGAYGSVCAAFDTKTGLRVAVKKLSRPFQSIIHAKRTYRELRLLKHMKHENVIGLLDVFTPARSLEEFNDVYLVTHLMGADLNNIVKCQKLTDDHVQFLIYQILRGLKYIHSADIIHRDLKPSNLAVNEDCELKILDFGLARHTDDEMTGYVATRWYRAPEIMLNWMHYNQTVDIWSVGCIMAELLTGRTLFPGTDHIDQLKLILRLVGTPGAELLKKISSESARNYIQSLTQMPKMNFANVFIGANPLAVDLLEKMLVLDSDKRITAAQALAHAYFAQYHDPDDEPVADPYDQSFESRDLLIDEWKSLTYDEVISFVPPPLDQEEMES

What is called Kd is a measure of binding affinity in units of concentration. Regarding `O=C(Nc1cccc(Cl)c1)Nc1ncc(CCNc2ncnc3ccsc23)s1` [SNS-314], the Kd in experiment [1], in experiment [2], in experiment [3], in [4] and in experiment [5] was > 30 µM (inactive) in each case.
For the compound `Cc1cn(-c2cc(NC(=O)c3ccc(C)c(Nc4nccc(-c5cccnc5)n4)c3)cc(C(F)(F)F)c2)cn1` [NILOTINIB], the Kd in experiment [1], in experiment [2], in experiment [3] and in experiment [4] was > 30 µM (inactive) each time.
For `Nc1nc(N)c2nc(-c3cccc(O)c3)c(-c3cccc(O)c3)nc2n1` [TG100-115], the Kd in experiment [6], in experiment [1], in experiment [2] and in experiment [4] was > 30 µM (inactive) each time.
As to `CN1CCN(c2ccc3nc(-c4c(N)c5c(F)cccc5[nH]c4=O)[nH]c3c2)CC1` [DOVITINIB], the Kd in experiment [3] and in experiment [4] was > 30 µM (inactive) in each case.
As for `Cc1cc(Nc2cc(N3CCN(C)CC3)nc(/C=C/c3ccccc3)n2)n[nH]1` [ENMD-2076], the Kd in experiment [1], in experiment [2], in experiment [3], in experiment [4] and in experiment [5] was > 30 µM (inactive) in each case.
For the compound `COc1cc(N2CCC(N3CCN(C)CC3)CC2)ccc1Nc1ncnc(Nc2ccccc2S(=O)(=O)C(C)C)n1` [ASP-3026], the Kd in experiment [6] is 20.8 µM (active); in experiment [1], > 30 µM (inactive); in [7], > 30 µM (inactive); in experiment [8] it was > 30 µM (inactive); in experiment [9], > 30 µM (inactive); in [5] it was > 30 µM (inactive).
Consider `CNC(=O)c1ccc(-c2cnc3ncc(Cc4ccc5ncccc5c4)n3n2)cc1F` [CAPMATINIB], for which the Kd in experiment [6], in experiment [2], in experiment [7], in [9], in experiment [3] and in experiment [4] was > 30 µM (inactive) in each case.
As to `CNC(=O)c1ccc(C)c(-n2c(C)cc(OCc3ccc(F)cc3F)c(Br)c2=O)c1` [PH-797804], the Kd in experiment [6], in experiment [1], in experiment [8] and in experiment [9] was > 30 µM (inactive) each time.
For `Cc1nc(N)sc1-c1ccnc(Nc2ccc(N3CCOCC3)cc2)n1` [CYC-116], the Kd in experiment [1], in [2], in experiment [7], in [3], in experiment [4] and in [5] was > 30 µM (inactive) throughout.
On to `C[C@@H](Nc1cc(F)cc(F)c1)c1cc(C(=O)N(C)C)cc2c(=O)cc(N3CCOCC3)oc12` [AZD-8186], for which the Kd in experiment [6], in experiment [7], in [8] and in experiment [5] was > 30 µM (inactive) each time.
In the case of `CCn1c(-c2nonc2N)nc2c(C#CC(C)(C)O)ncc(OC[C@H]3CCCNC3)c21` [GSK-690693], the Kd in experiment [2] and in experiment [4] was > 30 µM (inactive) throughout.
Turning to `COc1cc(OC)c(/C=C/S(=O)(=O)Cc2ccc(OC)c(NCC(=O)O)c2)c(OC)c1` [RIGOSERTIB], the Kd in [6] was > 30 µM (inactive); in experiment [1], > 30 µM (inactive); in experiment [7], > 30 µM (inactive); in experiment [8], 0.94 µM (active); in [3] it was > 30 µM (inactive); in [4] it was > 30 µM (inactive). Besides, the Kd in experiment [5] is > 30 µM (inactive).
Regarding `Cn1ncc(Cl)c1-c1cc(C(=O)N[C@H](CN)Cc2cccc(F)c2)sc1Cl` [AFURESERTIB], the Kd in experiment [6], in experiment [1] and in [7] was > 30 µM (inactive) each time.
For `C1=C/COCc2cc(ccc2OCCN2CCCC2)Nc2nccc(n2)-c2cccc(c2)COC/1` [PACRITINIB], the Kd in experiment [6], in [1], in [2], in [7], in experiment [8] and in experiment [3] was > 30 µM (inactive) in each case. In addition, the Kd in experiment [4] and in experiment [5] was > 30 µM (inactive) each time.
As to `Cn1cc(-c2ccc(F)c(C(F)(F)F)c2)nc1C1CCN(c2ncnc3[nH]ncc23)CC1` [LY-2584702], the Kd in experiment [6], in experiment [1], in experiment [7], in experiment [8], in [9] and in [4] was > 30 µM (inactive) each time. In addition, the Kd in [5] was > 30 µM (inactive).
Regarding `CN(C)C(=O)c1cc2cnc(Nc3ccc(N4CCNCC4)cn3)nc2n1C1CCCC1` [RIBOCICLIB], the Kd in experiment [6], in [1], in experiment [2], in experiment [7], in [8] and in experiment [4] was > 30 µM (inactive) in each case. Further, the Kd in [5] was > 30 µM (inactive).
In the case of `CN1N=C(N)c2cn([C@@H]3O[C@H](COP(=O)(O)O)[C@@H](O)[C@H]3O)c3ncnc1c23` [TRICIRIBINE PHOSPHATE], the Kd in experiment [6], in experiment [1], in experiment [2], in experiment [7], in [8] and in [3] was > 30 µM (inactive) in each case. Also, the Kd in experiment [4] and in [5] was > 30 µM (inactive) each time.
`CNS(=O)(=O)Nc1nccc(Cc2c(C)c3ccc(Oc4ncccn4)cc3oc2=O)c1F` [AVUTOMETINIB]: the Kd in experiment [6], in [1], in experiment [7], in experiment [8], in [3] and in [4] was > 30 µM (inactive) each time. For the same compound, in [5], the Kd is > 30 µM (inactive).
